Where a SMILES comes first, the peptide text is derived from it. Where no end group is shown, it is not given here. The star is where a group is joined. Biotin = O=C1N[C@H]2[C@H](CS[C@H]2CCCCC(=O)*)N1; Ahx = NCCCCCC(=O)O
Key:
[1] = test system: E1 and E2s (ubc5c and ubc7); test: Coupled ubiquitin assay, ubiquitination of active site cysteines of E1 and E2; type: biochemical; settings: 20 mM DTT
Procedure: Recombinant E1 (ubc5c) and E2 (ubc7) components were obtained from BostonBiochem (Cambridge, Mass.). Radiolabeled ubiquitin was generated by PKA-mediated incorporation of [^32P]-phosphate from […] to the PKA site of the GST-Ub fusion protein (pGEX KG expression vector). The ubiquitin assay buffer (UbB) was as follows: 50 mM Tris pH 7.6, 1 mM ATP, 0.2 mM EDTA, 5 mM MgCl2, 1 unit inorganic pyrophosphatase, 0.005% TRITON® X-100 detergent and 1 μM staurosporine. In a 0.030 mL reaction, the following components were present: 50-200 ng E1, 0.1-1 μg E2 and 5 μg GST-Ub. […] Reactions were analyzed by SDS-PAGE. The ubiquitination of active site cysteine residues of E1 and E2s (ubc Sc and ubc 7) was observed (FIGS. 9A-9C).

[2] = test system: WWP1 WW domains; test: TRF binding assay of biotinylated PY motif peptides to GST-WW domain fusions; settings: for Interaction with WWP1 WW domains (TRF, peptide titration): GST-WW domains coated at 30 μg/mL overnight
Procedure: Each domain was individually expressed as a GST fusion protein. A TRF binding assay was used to evaluate interactions of PY motif peptides with these domains or GST alone. WW domains were bound to a 96-well polystyrene assay plate (Costar) overnight at 4° C. in a 200 mM carbonate buffer (Pierce, Rockford, Ill.) at different concentrations (0, 1, 3, 10 μg/mL). Unbound WW domain was washed away with distilled, deionized water and the plates were blocked with 1% BSA/carbonate buffer for 2 hours at room temperature. The plates were then washed with Tris/TWEEN® buffer: 50 mM Tris pH 7.5, 100 mM NaCl, 1 mM EDTA, 1% BSA, 1 mM DTT, 0.1% TWEEN® 20 detergent, protease inhibitor cocktail (Boehringer-Mannheim).
PY motif peptides were synthesized with a C6-linker and biotin tag.
These biotinylated peptides were solvated in Tris/TWEEN® buffer and added to the assay plates (30 μM). The plates were incubated at 4° C. for varying amounts of capture time. The plates were then washed with PBS/0.1% TRITON® X-100 detergent and probed for 1 hour at room temperature with 1 μg/mL Europium-labeled streptavidin (DELFIA; Wallac Oy, Turku, Finland) in DELFIA Assay Buffer/0.1% Triton X100. The unbound Europium-labeled streptavidin was washed with PBS/0.1% TRITON® X-100 detergent. Europium was released for time-resolved fluorescence measurements with the DELFIA Enhancement Buffer. Measurements were made on either the DELFIA 1234 or Victor fluorometers.
Smad PY motif peptides from Smad 1, 2, 3, 5, 6 and 7 (Table 1) were then evaluated with the WW domains from WWP1 (FIGS. 6A-6D and 7A-7B). The GST-WW domain fusion proteins and GST alone were coated at 30 μg/mL overnight. After blocking the wells with BSA, the WW domain peptides were titrated with the Smad PY motif peptides.

[3] = test system: HA-tagged Smad1; test: BMP-induced Smad1 degradation in transfected COS cells (Western, anti-HA); type: cell-based; settings: 100 ng BMP 4 hours, 50-100 μM LLF
Procedure: HA-tagged Smad1 expression vector was transfected into COS cells. The transfected cells were then treated with 100 ng BMP for 4 hours in the absence or presence of 50-100 μM of the proteasome inhibitor Leu-Leu-Phe (LLF). The cells were lysed and equal amount of protein was loaded in each lane. Western analysis was performed using anti-HA antibody (BAbCo, Berkeley, Calif.).

[4] = test system: Smad1; test: In vivo ubiquitination of Smad1 in transfected COS cells (immunoprecipitation, Western); type: cell-based; settings: COS cells treated with LLF, with or without BMP
Procedure: To assess the in vivo ubiquitination of Smad1, a Smad1 expression vector was transfected into COS cells. The transfected cells were treated with BMP and the proteasome inhibitor LLF, as described above. The cells were then lysed and equal amounts of protein were used for immunoprecipitation using anti-HA antibody, to precipitate tagged-Smad1 protein. The immunoprecipitated Smad1 was run on SDS-PAGE, followed by a Western blot using anti-HA antibody or anti-ubiquitin antibody (BAbCo).

Row | Molecule | Interaction with WWP1 WW domains (TRF, peptide titration) [2] | also measured
1 | O[C@@H](CS)[C@@H](O)CS [DTT] |  | Formation of thioester intermediates (ubiquitinated E1 and E2) [1]: prevented the formation of the thioester intermediates
2 | GPESPPPPYSRLSP (SEQ ID NO:21) (also: biotinylated) [Smad 6, biotinylated Smad6 PY motif peptide] | measurable interactions | 
3 | {Biotin-Ahx}-PADTPPPAYLPPED-NH2 (SEQ ID NO:22) [Smad 1] | no measurable interaction | 
4 | {Biotin-Ahx}-HPGTPPPPYTVGPG-NH2 (SEQ ID NO:28) [WBP1, reference compound] |  | Binding to WWP1 WW domains (TRF) ([2]; peptide 30 μM, WW domains coated at 0, 1, 3, 10 μg/mL, GST alone as control): bound specifically
5 | IPETPPPGYISEDG (SEQ ID NO:24) (also: biotinylated) [Smad 2, biotinylated Smad2 PY motif peptide] | no measurable interaction | 
6 | CC(C)C[C@H](NC(=O)[C@@H](N)CC(C)C)C(=O)N[C@@H](Cc1ccccc1)C(=O)O [LLF, Leu-Leu-Phe] (H-Leu-Leu-Phe-OH) |  | Effect on BMP-induced Smad1 degradation [3]: blocks BMP-induced Smad1 degradation; Accumulation of high molecular weight ubiquitinated Smad1 [4]: accumulated more high molecular weight, ubiquitinated-Smad1 protein
7 | PADTPPPAYMPPDD (SEQ ID NO:23) (also: biotinylated) [Smad 5, biotinylated Smad5 PY motif peptide] | measurable interactions | 
8 | AGLTPPPGYLSEDG (SEQ ID NO:25) (also: biotinylated) [Smad 3, biotinylated Smad3 PY motif peptide] | no measurable interaction | 
